Test results published in ChEMBL document CHEMBL4665887, “Identification, Structure-Activity Relationships of Marine-Derived Indolocarbazoles, and a Dual PKCθ/δ Inhibitor with Potent Antipancreatic Cancer Efficacy” (J Med Chem, 2020).

Legend:
[1] = Toxicity in BALB/c mouse model of patient-derived xenograft implanted with patient-derived pancreatic cancer cells assessed as effect on normal anatomical structures of heart at 6 mg/kg, iv dosed once every 2 days for 18 days relative to control; type: organism-based; conditions: in vivo, 432 h, time 18 day
[2] = target: Protein kinase C delta type (Homo sapiens, UniProt Q05655); assay: Inhibition of PKCdelta (unknown origin) by HTRF assay
[3] = target: Protein kinase C theta type (Homo sapiens, UniProt Q04759); assay: Inhibition of PKCtheta (unknown origin) by HTRF assay
RKO = assay: Cytotoxicity in human RKO cells assessed as reduction in cell viability incubated for 24 hrs by CCK8 assay; type: functional, cell-based
[4] = Antitumor activity against patient-derived pancreatic cancer cells xenografted in BALB/c mouse model of patient-derived xenograft assessed as inhibition of tumor growth at 6 mg/kg, iv dosed once every 2 days for 18 days relative to control; type: functional; conditions: Homo sapiens, Pancreatic cancer cell, 432 h, time 18 day, read-out: TGI
BXPC-3 [5] = assay: Induction of apoptosis in human BXPC-3 cells assessed as viable cells level at 0.5 uM incubated for 24 hrs by PI and annexin V-FITC staining based flow cytometry (reference value: 93.43%); type: functional
[6] = Toxicity in BALB/c mouse model of patient-derived xenograft implanted with patient-derived pancreatic cancer cells assessed as effect on normal anatomical structures of lung at 6 mg/kg, iv dosed once every 2 days for 18 days relative to control; type: organism-based; conditions: in vivo, 432 h, time 18 day
[7] = Toxicity in BALB/c mouse model of patient-derived xenograft implanted with patient-derived pancreatic cancer cells assessed as effect on body weight at 6 mg/kg, iv dosed once every 2 days for 18 days relative to control; type: organism-based; conditions: in vivo, 432 h, time 18 day
[8] = Toxicity in nude BALB/c mouse xenografted with human BXPC-3 cells assessed as effect on body weight level at 6 mg/kg, iv QD for 18 days relative to control; type: organism-based; conditions: in vivo, 432 h, time 18 day
NCI-H1299 = assay: Cytotoxicity in human NCI-H1299 cells assessed as reduction in cell viability incubated for 24 hrs by CCK8 assay; type: functional, cell-based; conditions: NCI-H1299, 24 h
BXPC-3 [9] = assay: Induction of apoptosis in human BXPC-3 cells assessed as early apoptotic cells level at 0.25 uM incubated for 24 hrs by PI and annexin V-FITC staining based flow cytometry (reference value: 5.69%); type: functional
BXPC-3 [10] = assay: Induction of apoptosis in human BXPC-3 cells assessed as late apoptotic cells level at 0.5 uM incubated for 24 hrs by PI and annexin V-FITC staining based flow cytometry (reference value: 0.83%); type: functional
A549 = assay: Cytotoxicity in human A549 cells assessed as reduction in cell viability incubated for 24 hrs by CCK8 assay; type: functional, cell-based; conditions: A549, 24 h
BXPC-3 [11] = assay: Induction of apoptosis in human BXPC-3 cells assessed as viable cells level at 0.25 uM incubated for 24 hrs by PI and annexin V-FITC staining based flow cytometry (reference value: 93.43%); type: functional
BXPC-3 [12] = assay: Induction of apoptosis in human BXPC-3 cells assessed as necrotic cells level at 0.25 uM incubated for 24 hrs by PI and annexin V-FITC staining based flow cytometry (reference value: 0.05%); type: functional
MGC-803 = assay: Cytotoxicity in human MGC-803 cells assessed as reduction in cell viability incubated for 24 hrs by CCK8 assay; type: functional, cell-based; conditions: MGC-803, 24 h
[13] = Effect in PKCtheta protein expression in human BXPC-3 cells at 0.25 to 1 uM incubated for 4 hrs by Western blot analysis; type: ADME, cell-based; conditions: bxpc-3, 4 h, dose 0.25-1 µM
NCI-H1975 = assay: Cytotoxicity in human NCI-H1975 cells assessed as reduction in cell viability incubated for 24 hrs by CCK8 assay; type: functional, cell-based; conditions: NCI-H1975, 24 h
[14] = Toxicity in BALB/c mouse model of patient-derived xenograft implanted with patient-derived pancreatic cancer cells assessed as effect on normal anatomical structures of liver at 6 mg/kg, iv dosed once every 2 days for 18 days relative to control; type: organism-based; conditions: in vivo, 432 h, time 18 day
BXPC-3 [15] = assay: Induction of apoptosis in human BXPC-3 cells assessed as early apoptotic cells level at 0.5 uM incubated for 24 hrs by PI and annexin V-FITC staining based flow cytometry (reference value: 5.69%); type: functional
ASPC1 = assay: Cytotoxicity in human ASPC1 cells assessed as reduction in cell viability incubated for 24 hrs by CCK8 assay; type: functional, cell-based; conditions: ASPC1, 24 h
BXPC-3 [16] = assay: Antitumor activity against human BXPC-3 cells xenografted in nude BALB/c mouse assessed as inhibition of tumor growth at 6 mg/kg, iv QD for 18 days relative to control; type: functional; conditions: BXPC-3, iv, 432 h, time 18 day, read-out: TGI
BXPC-3 [17] = assay: Induction of apoptosis in human BXPC-3 cells assessed as necrotic cells level at 0.5 uM incubated for 24 hrs by PI and annexin V-FITC staining based flow cytometry (reference value: 0.05%); type: functional
PC-9 = assay: Cytotoxicity in human PC-9 cells assessed as reduction in cell viability incubated for 24 hrs by CCK8 assay; type: functional, cell-based; conditions: PC-9, 24 h
[18] = Toxicity in BALB/c mouse model of patient-derived xenograft implanted with patient-derived pancreatic cancer cells assessed as effect on normal anatomical structures of spleen at 6 mg/kg, iv dosed once every 2 days for 18 days relative to control; type: organism-based; conditions: in vivo, 432 h, time 18 day
BXPC-3 [19] = assay: Induction of apoptosis in human BXPC-3 cells assessed as late apoptotic cells level at 0.25 uM incubated for 24 hrs by PI and annexin V-FITC staining based flow cytometry (reference value: 0.83%); type: functional
BXPC-3 [20] = assay: Cytotoxicity in human BXPC-3 cells assessed as reduction in cell viability incubated for 24 hrs by CCK8 assay; type: functional, cell-based; conditions: BXPC-3, 24 h
[21] = Toxicity in BALB/c mouse model of patient-derived xenograft implanted with patient-derived pancreatic cancer cells assessed as effect on normal anatomical structures of kidney at 6 mg/kg, iv dosed once every 2 days for 18 days relative to control; type: organism-based; conditions: in vivo, 432 h, time 18 day

Protein kinase C theta type, sequence (Q04759 whole entry): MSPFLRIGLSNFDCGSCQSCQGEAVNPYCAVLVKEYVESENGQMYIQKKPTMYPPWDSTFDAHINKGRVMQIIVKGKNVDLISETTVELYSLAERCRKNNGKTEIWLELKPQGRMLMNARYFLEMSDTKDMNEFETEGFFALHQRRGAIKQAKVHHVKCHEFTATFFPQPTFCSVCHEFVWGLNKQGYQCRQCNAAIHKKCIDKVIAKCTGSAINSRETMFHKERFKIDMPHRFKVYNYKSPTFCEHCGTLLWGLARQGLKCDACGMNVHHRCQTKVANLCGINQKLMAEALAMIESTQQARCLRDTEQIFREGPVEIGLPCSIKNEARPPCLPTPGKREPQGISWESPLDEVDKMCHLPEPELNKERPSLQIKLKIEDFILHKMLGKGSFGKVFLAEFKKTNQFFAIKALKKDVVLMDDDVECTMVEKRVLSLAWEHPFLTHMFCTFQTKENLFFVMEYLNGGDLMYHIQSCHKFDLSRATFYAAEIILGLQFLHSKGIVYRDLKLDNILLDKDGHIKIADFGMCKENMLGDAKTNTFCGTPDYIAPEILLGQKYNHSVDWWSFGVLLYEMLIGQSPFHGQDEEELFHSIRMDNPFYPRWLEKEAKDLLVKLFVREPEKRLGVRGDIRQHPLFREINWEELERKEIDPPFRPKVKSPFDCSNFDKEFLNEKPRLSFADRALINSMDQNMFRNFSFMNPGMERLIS
Protein kinase C delta type, sequence (Q05655 whole entry): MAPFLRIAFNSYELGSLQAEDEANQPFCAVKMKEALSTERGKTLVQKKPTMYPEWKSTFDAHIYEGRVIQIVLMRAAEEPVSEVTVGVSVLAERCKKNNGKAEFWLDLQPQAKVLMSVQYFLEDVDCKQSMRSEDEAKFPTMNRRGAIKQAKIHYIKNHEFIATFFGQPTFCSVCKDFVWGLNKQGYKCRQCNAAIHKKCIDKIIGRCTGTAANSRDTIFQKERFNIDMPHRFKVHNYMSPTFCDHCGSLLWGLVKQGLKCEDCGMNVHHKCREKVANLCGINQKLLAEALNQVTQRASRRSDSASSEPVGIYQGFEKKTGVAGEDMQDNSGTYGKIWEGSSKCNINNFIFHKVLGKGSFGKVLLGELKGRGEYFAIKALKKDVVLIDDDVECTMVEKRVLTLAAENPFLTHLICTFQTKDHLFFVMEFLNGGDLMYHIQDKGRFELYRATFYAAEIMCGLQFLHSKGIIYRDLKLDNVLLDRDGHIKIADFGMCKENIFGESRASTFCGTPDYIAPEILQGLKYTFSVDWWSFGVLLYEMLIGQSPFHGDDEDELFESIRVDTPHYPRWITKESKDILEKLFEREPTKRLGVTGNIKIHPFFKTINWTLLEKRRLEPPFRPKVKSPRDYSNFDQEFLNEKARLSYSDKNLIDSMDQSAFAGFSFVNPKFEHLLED

Question: What does the source list for `CN[C@@H]1C[C@H]2O[C@@](C)([C@@H]1OC)n1c3ccccc3c3c4c(c5c6ccccc6n2c5c31)C(=O)NC4=O` (stereo in doubt; 15)?
Answer: Activity [1]: Non-Toxic; IC50 [2]: 21 nM; IC50 [3]: 6 nM; IC50 (RKO): 1470 nM; inhibition in vivo at 6 mg/kg [4]: 56.9%; Activity (BXPC-3 [5]): 46.45%; Activity [6]: Non-Toxic; Activity [7]: Non-Toxic; Activity [8]: Non-Toxic; IC50 (NCI-H1299): 2030 nM; Activity (BXPC-3 [9]): 33.77%; Activity (BXPC-3 [10]): 6.89%; IC50 (A549): 780 nM; Activity (BXPC-3 [11]): 63.54%; Activity (BXPC-3 [12]): 0.04%; IC50 (MGC-803): 1520 nM; Activity [13]: Non-Toxic; IC50 (NCI-H1975): 2010 nM; Activity [14]: Non-Toxic; Activity (BXPC-3 [15]): 46.07%; IC50 (ASPC1): 1200 nM; inhibition in vivo at 6 mg/kg (BXPC-3 [16]): 49.6%; Activity (BXPC-3 [17]): 0.59%; IC50 (PC-9): 1880 nM; Activity [18]: Non-Toxic; Activity (BXPC-3 [19]): 2.66%; IC50 (BXPC-3 [20]): 430 nM; Activity [21]: Non-Toxic
